Data published in patent US9802973B2, “Crystalline forms of ferric maltol” (SHIELD TX (UK) LTD., priority 2014, dated 2017).

Key:
[1] = Solubility in pure water of the polymorphs; conditions: 23° C.
Method: The solubility in pure water of samples of the different polymorphs was assessed at 23° C.

[2] = Competitive slurries of polymorphs (XRPD of product); assay type: physicochemical
Method: Form IV (10 mg) was placed in water (1 ml) with 10 mg of Form I and Form II and stirred overnight at ambient temperature. A second slurry was set up to also include a further polymorph. Mixtures were filtered under suction and dried in a vacuum oven (45° C.).
The same experimental procedure was applied to a slurry involving Forms I, II, III and IV. The initial test was performed in water and a second was carried out in ethyl acetate. […] This work supports previous conclusions that Form II is the dominant form.

Solubility [1]: 5900 µg/mL | Form obtained from competitive slurry (XRPD) ([2]; Form IV with Form I and Form II, water, stirred overnight at ambient temperature): generated | Relative stability of forms concluded from competitive slurries ([2]; conclusion from competitive slurries): dominant form | Form obtained from competitive slurry (XRPD) ([2]; slurry of Forms I, II, III and IV, in water and in ethyl acetate): isolated
Compound: Cc1occc(=O)c1[O-].Cc1occc(=O)c1[O-].Cc1occc(=O)c1[O-].[Fe+3] [Form II, ferric maltol]
